Data published in the supplement of paper PMC10307832.

Experiments:
Assay in all cases: relative viability (nuclei count vs DMSO), 5 days (fraction); higher = more cells survive
LOU-NH91 = system: LOU-NH91
Method in brief: (§1)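 Relative viability equals treated-well nuclei counts divided by vehicle-well nuclei counts. Counts came from 4× images of lung cancer cell lines grown in 1536-well plates for 5 days after pin-tool dosing on the day after seeding. Dosing used one drug alone or a fixed anchor-drug dose plus five library-drug doses (not always all listed) in √10 steps, and values are medians of duplicate plates.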

HARA = system: HARA
Method in brief: as §1

NCI-H650 = system: NCI-H650
Method in brief: as §1

NCI-H2126 = system: NCI-H2126
Method in brief: as §1

NCI-H1666 = system: NCI-H1666
Method in brief: as §1

NCI-H441 = system: NCI-H441
Method in brief: as §1

NCI-H2347 = system: NCI-H2347
Method in brief: as §1

NCI-H1993 = system: NCI-H1993
Method in brief: as §1

NCI-H23 = system: NCI-H23
Method in brief: as §1

NCI-H838 = system: NCI-H838
Method in brief: as §1

201T = system: 201T
Method in brief: as §1

NCI-H647 = system: NCI-H647
Method in brief: as §1

NCI-H2023 = system: NCI-H2023
Method in brief: as §1

BEN = system: BEN
Method in brief: as §1

LCLC-103H = system: LCLC-103H
Method in brief: as §1

NCI-H727 = system: NCI-H727
Method in brief: as §1

NCI-H1395 = system: NCI-H1395
Method in brief: as §1

NCI-H2009 = system: NCI-H2009
Method in brief: as §1

NCI-H3122 = system: NCI-H3122
Method in brief: as §1

NCI-H596 = system: NCI-H596
Method in brief: as §1

NCI-H2087 = system: NCI-H2087
Method in brief: as §1

EMC-BAC-2 = system: EMC-BAC-2
Method in brief: as §1

NCI-H522 = system: NCI-H522
Method in brief: as §1

HCC-44 = system: HCC-44
Method in brief: as §1

SMILES: C[C@@H]1CN(CC(=O)Nc2ccc3c(c2)Cc2cccc(-c4cc(=O)cc(N5CCOCC5)o4)c2S3)C[C@H](C)O1 + Cc1nc(Nc2ncc(C(=O)Nc3c(C)cccc3Cl)s2)cc(N2CCN(CCO)CC2)n1 [Dasatinib] (partner 0.075 µM)
- relative viability (LOU-NH91; first compound 0.04 µM): 0.588
- relative viability (LOU-NH91; first compound 0.1265 µM): 0.51
- relative viability (LOU-NH91; first compound 0.4 µM): 0.476
- relative viability (LOU-NH91; first compound 4 µM): 0.492
- relative viability (HARA; first compound 0.1265 µM): 0.204
- relative viability (HARA; first compound 0.4 µM): 0.34
- relative viability (HARA; first compound 4 µM): 0.258
- relative viability (NCI-H650; first compound 0.04 µM): 0.45
- relative viability (NCI-H650; first compound 0.1265 µM): 0.445
- relative viability (NCI-H650; first compound 0.4 µM): 0.359
- relative viability (NCI-H650; first compound 4 µM): 0.384
- relative viability (NCI-H2126; first compound 0.04 µM): 0.607
- relative viability (NCI-H2126; first compound 0.1265 µM): 0.604
- relative viability (NCI-H2126; first compound 0.4 µM): 0.467
- relative viability (NCI-H2126; first compound 4 µM): 0.418
- relative viability (NCI-H1666; first compound 0.04 µM): 0.831
- relative viability (NCI-H1666; first compound 0.1265 µM): 0.805
- relative viability (NCI-H1666; first compound 0.4 µM): 0.905
- relative viability (NCI-H1666; first compound 4 µM): 0.788
- relative viability (NCI-H441; first compound 0.04 µM): 0.762
- relative viability (NCI-H441; first compound 0.1265 µM): 0.46
- relative viability (NCI-H441; first compound 0.4 µM): 0.62
- relative viability (NCI-H441; first compound 4 µM): 0.538
- relative viability (NCI-H2347; first compound 0.04 µM): 0.329
- relative viability (NCI-H2347; first compound 0.1265 µM): 0.39
- relative viability (NCI-H2347; first compound 0.4 µM): 0.248
- relative viability (NCI-H2347; first compound 4 µM): 0.337
- relative viability (NCI-H1993; first compound 0.04 µM): 0.643
- relative viability (NCI-H1993; first compound 0.1265 µM): 0.626
- relative viability (NCI-H1993; first compound 0.4 µM): 0.556
- relative viability (NCI-H1993; first compound 4 µM): 0.641
- relative viability (NCI-H23; first compound 0.04 µM): 0.751
- relative viability (NCI-H23; first compound 0.1265 µM): 0.751
- relative viability (NCI-H23; first compound 0.4 µM): 0.711
- relative viability (NCI-H23; first compound 4 µM): 0.735
- relative viability (NCI-H838; first compound 0.04 µM): 0.27
- relative viability (NCI-H838; first compound 0.1265 µM): 0.233
- relative viability (NCI-H838; first compound 0.4 µM): 0.221
- relative viability (NCI-H838; first compound 4 µM): 0.188
- relative viability (201T; first compound 0.04 µM): 0.624
- relative viability (201T; first compound 0.1265 µM): 0.525
- relative viability (201T; first compound 0.4 µM): 0.581
- relative viability (201T; first compound 4 µM): 0.52
- relative viability (NCI-H647; first compound 0.04 µM): 0.236
- relative viability (NCI-H647; first compound 0.1265 µM): 0.159
- relative viability (NCI-H647; first compound 0.4 µM): 0.161
- relative viability (NCI-H647; first compound 4 µM): 0.146
- relative viability (NCI-H2023; first compound 0.04 µM): 0.638
- relative viability (NCI-H2023; first compound 0.1265 µM): 0.512
- relative viability (NCI-H2023; first compound 0.4 µM): 0.415
- relative viability (NCI-H2023; first compound 4 µM): 0.342
- relative viability (BEN; first compound 0.04 µM): 0.308
- relative viability (BEN; first compound 0.1265 µM): 0.265
- relative viability (BEN; first compound 0.4 µM): 0.333
- relative viability (BEN; first compound 4 µM): 0.377
- relative viability (LCLC-103H; first compound 0.04 µM): 0.451
- relative viability (LCLC-103H; first compound 0.1265 µM): 0.436
- relative viability (LCLC-103H; first compound 0.4 µM): 0.405
- relative viability (LCLC-103H; first compound 4 µM): 0.419
- relative viability (NCI-H727; first compound 0.04 µM): 0.361
- relative viability (NCI-H727; first compound 0.1265 µM): 0.368
- relative viability (NCI-H727; first compound 0.4 µM): 0.378
- relative viability (NCI-H727; first compound 4 µM): 0.286
- relative viability (NCI-H1395; first compound 0.04 µM): 0.396
- relative viability (NCI-H1395; first compound 0.1265 µM): 0.387
- relative viability (NCI-H1395; first compound 0.4 µM): 0.366
- relative viability (NCI-H1395; first compound 4 µM): 0.368
- relative viability (NCI-H2009; first compound 0.04 µM): 0.383
- relative viability (NCI-H2009; first compound 0.1265 µM): 0.29
- relative viability (NCI-H2009; first compound 0.4 µM): 0.305
- relative viability (NCI-H2009; first compound 4 µM): 0.155
- relative viability (NCI-H3122; first compound 0.04 µM): 0.797
- relative viability (NCI-H3122; first compound 0.1265 µM): 0.838
- relative viability (NCI-H3122; first compound 0.4 µM): 0.827
- relative viability (NCI-H3122; first compound 4 µM): 0.844
- relative viability (NCI-H596; first compound 0.04 µM): 0.568
- relative viability (NCI-H596; first compound 0.1265 µM): 0.512
- relative viability (NCI-H596; first compound 0.4 µM): 0.572
- relative viability (NCI-H596; first compound 4 µM): 0.484
- relative viability (NCI-H2087; first compound 0.04 µM): 0.971
- relative viability (NCI-H2087; first compound 0.1265 µM): 0.852
- relative viability (NCI-H2087; first compound 0.4 µM): 0.894
- relative viability (NCI-H2087; first compound 4 µM): 0.743
- relative viability (EMC-BAC-2; first compound 0.04 µM): 0.386
- relative viability (EMC-BAC-2; first compound 0.1265 µM): 0.34
- relative viability (EMC-BAC-2; first compound 0.4 µM): 0.394
- relative viability (EMC-BAC-2; first compound 4 µM): 0.413
- relative viability (NCI-H522; first compound 0.04 µM): 0.775
- relative viability (NCI-H522; first compound 0.1265 µM): 0.773
- relative viability (NCI-H522; first compound 0.4 µM): 0.806
- relative viability (NCI-H522; first compound 4 µM): 0.828

SMILES: CC(C)Oc1cc(Nc2nc(N[C@@H](C)c3ccc(F)cn3)ncc2Cl)n[nH]1 [AZ23] + C[C@]1(O)C[C@@H](c2nc(-c3ccc4ccc(-c5ccccc5)nc4c3)c3c(N)nccn32)C1 [Linsitinib] (partner 1 µM)
- relative viability (LOU-NH91; first compound 0.01 µM): 0.85
- relative viability (LOU-NH91; first compound 0.03162 µM): 0.966
- relative viability (LOU-NH91; first compound 0.3162 µM): 0.917
- relative viability (HARA; first compound 0.01 µM): 0.977
- relative viability (HARA; first compound 0.03162 µM): 1.04
- relative viability (HARA; first compound 0.3162 µM): 0.854
- relative viability (NCI-H650; first compound 0.01 µM): 0.648
- relative viability (NCI-H650; first compound 0.03162 µM): 0.893
- relative viability (NCI-H650; first compound 0.3162 µM): 0.857
- relative viability (NCI-H2126; first compound 0.01 µM): 0.737
- relative viability (NCI-H2126; first compound 0.03162 µM): 0.739
- relative viability (NCI-H2126; first compound 0.3162 µM): 0.684
- relative viability (NCI-H1666; first compound 0.01 µM): 0.719
- relative viability (NCI-H1666; first compound 0.03162 µM): 0.943
- relative viability (NCI-H1666; first compound 0.3162 µM): 0.775
- relative viability (NCI-H441; first compound 0.01 µM): 0.608
- relative viability (NCI-H441; first compound 0.03162 µM): 0.622
- relative viability (NCI-H441; first compound 0.3162 µM): 0.591
- relative viability (NCI-H2347; first compound 0.01 µM): 1.03
- relative viability (NCI-H2347; first compound 0.03162 µM): 0.993
- relative viability (NCI-H2347; first compound 0.3162 µM): 0.926
- relative viability (NCI-H1993; first compound 0.01 µM): 0.801
- relative viability (NCI-H1993; first compound 0.3162 µM): 0.724
- relative viability (NCI-H23; first compound 0.03162 µM): 0.697
- relative viability (NCI-H23; first compound 0.3162 µM): 0.596
- relative viability (NCI-H838; first compound 0.01 µM): 1.02
- relative viability (NCI-H838; first compound 0.03162 µM): 1.23
- relative viability (NCI-H838; first compound 0.3162 µM): 0.945
- relative viability (201T; first compound 0.01 µM): 1.01
- relative viability (201T; first compound 0.03162 µM): 1.11
- relative viability (201T; first compound 0.3162 µM): 0.996
- relative viability (NCI-H647; first compound 0.01 µM): 1.48
- relative viability (NCI-H647; first compound 0.03162 µM): 1.17
- relative viability (NCI-H647; first compound 0.3162 µM): 1.26
- relative viability (NCI-H2023; first compound 0.03162 µM): 0.666
- relative viability (NCI-H2023; first compound 0.3162 µM): 0.731
- relative viability (BEN; first compound 0.01 µM): 1
- relative viability (BEN; first compound 0.03162 µM): 0.966
- relative viability (BEN; first compound 0.3162 µM): 0.977
- relative viability (LCLC-103H; first compound 0.01 µM): 1.07
- relative viability (LCLC-103H; first compound 0.03162 µM): 1.03
- relative viability (LCLC-103H; first compound 0.3162 µM): 1.15
- relative viability (NCI-H727; first compound 0.01 µM): 0.354
- relative viability (NCI-H727; first compound 0.03162 µM): 0.281
- relative viability (NCI-H727; first compound 0.3162 µM): 0.277
- relative viability (NCI-H1395; first compound 0.03162 µM): 1.09
- relative viability (NCI-H1395; first compound 0.3162 µM): 0.975
- relative viability (NCI-H2009; first compound 0.01 µM): 1.17
- relative viability (NCI-H2009; first compound 0.03162 µM): 1.25
- relative viability (NCI-H2009; first compound 0.3162 µM): 1.18
- relative viability (NCI-H3122; first compound 0.01 µM): 1.01
- relative viability (NCI-H3122; first compound 0.03162 µM): 1.01
- relative viability (NCI-H3122; first compound 0.3162 µM): 1.06
- relative viability (NCI-H596; first compound 0.01 µM): 1.09
- relative viability (NCI-H596; first compound 0.03162 µM): 1.18
- relative viability (NCI-H596; first compound 0.3162 µM): 1
- relative viability (NCI-H2087; first compound 0.01 µM): 1.34
- relative viability (NCI-H2087; first compound 0.03162 µM): 1.06
- relative viability (NCI-H2087; first compound 0.3162 µM): 0.955
- relative viability (EMC-BAC-2; first compound 0.01 µM): 1.09
- relative viability (EMC-BAC-2; first compound 0.03162 µM): 0.814
- relative viability (EMC-BAC-2; first compound 0.3162 µM): 0.884
- relative viability (HCC-44; first compound 0.01 µM): 0.684
- relative viability (HCC-44; first compound 0.03162 µM): 0.74
- relative viability (HCC-44; first compound 0.3162 µM): 0.632
